This note sets out measurements from PMC7970798 (Computational and Structural Biotechnology Journal, 2021).

No end group written: not given here.

For this assay, the target named is PALS1 F318W (Homo sapiens, UniProt Q8N3R9, F318W). The assay is described as follows: biochemical. The assay is classed as binding.
PALS1 F318W, sequence (Q8N3R9 256-336 F318W limits assumed): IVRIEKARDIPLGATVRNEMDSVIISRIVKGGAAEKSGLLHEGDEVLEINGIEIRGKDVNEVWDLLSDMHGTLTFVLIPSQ

For orientation: Kd means the free concentration of one partner at which half of the binding sites on the other are occupied at equilibrium, for simple one-to-one binding. Low values mean tighter binding, high ones weaker binding. Turning to “VKNLNSSRVPDLLV [SARS-CoV-2, VKNLNSSRVPDLLV]”, the Kd was determined as 29 ± 4 µM.
